Assay results taken from patent publication US20050209278A1, “Piperidinyl- and piperazinyl-sulfonylmethyl hydroxamic acids and their use as protease inhibitors” (priority 2002, published 2005).
Read-outs that look alike come from different tables or passages of the source.

Assays:
Type in all cases: biochemical
MMP-9 = target: T1, MMP-9 (Homo sapiens, UniProt P14780); experiment: MMP-9 inhibition (in vitro Ki)
T1 construct: made in house; host or cells: MMP-9-transfected HT1080 cells (spent media)
T1 sequence (P14780 107-707 limits assumed): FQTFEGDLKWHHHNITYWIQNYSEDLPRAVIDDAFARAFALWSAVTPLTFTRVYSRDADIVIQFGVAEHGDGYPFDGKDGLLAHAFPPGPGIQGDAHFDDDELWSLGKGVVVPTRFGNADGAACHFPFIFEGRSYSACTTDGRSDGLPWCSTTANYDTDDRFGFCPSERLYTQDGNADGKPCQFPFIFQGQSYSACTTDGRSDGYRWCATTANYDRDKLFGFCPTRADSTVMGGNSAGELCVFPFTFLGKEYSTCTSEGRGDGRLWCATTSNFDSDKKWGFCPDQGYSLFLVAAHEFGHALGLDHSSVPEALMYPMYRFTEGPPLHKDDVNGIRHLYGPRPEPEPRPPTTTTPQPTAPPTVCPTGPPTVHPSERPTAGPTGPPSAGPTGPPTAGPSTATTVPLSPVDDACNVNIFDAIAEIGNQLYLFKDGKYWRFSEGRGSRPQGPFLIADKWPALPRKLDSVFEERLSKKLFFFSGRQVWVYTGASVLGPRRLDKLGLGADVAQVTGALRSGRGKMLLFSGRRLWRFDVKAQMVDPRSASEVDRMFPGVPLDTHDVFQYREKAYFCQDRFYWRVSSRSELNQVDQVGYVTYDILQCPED

MMP-14 = target: T2, MMP-14 (Homo sapiens, UniProt P50281); experiment: MMP-14 inhibition (in vitro Ki)
T2 construct: The catalytic domain enzyme was expressed in E. coli inclusion bodies, solubilized in urea; made in house

MMP-1 = target: T3, MMP-1 (Homo sapiens, UniProt P03956); experiment: MMP-1 inhibition (in vitro Ki)
T3 construct: made in house; host or cells: MMP-1-transfected HT-1080 cells (spent media)
T3 sequence (P03956 100-469): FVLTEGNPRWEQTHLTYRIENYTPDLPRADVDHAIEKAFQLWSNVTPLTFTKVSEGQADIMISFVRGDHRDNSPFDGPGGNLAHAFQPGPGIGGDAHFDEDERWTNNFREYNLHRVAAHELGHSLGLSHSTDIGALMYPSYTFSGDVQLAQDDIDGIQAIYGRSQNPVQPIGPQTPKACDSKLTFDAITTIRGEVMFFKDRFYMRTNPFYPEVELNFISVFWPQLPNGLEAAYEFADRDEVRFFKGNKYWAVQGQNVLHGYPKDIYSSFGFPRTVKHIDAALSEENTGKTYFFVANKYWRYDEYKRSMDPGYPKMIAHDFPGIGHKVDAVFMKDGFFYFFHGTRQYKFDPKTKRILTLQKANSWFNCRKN

MMP-13 = target: T4, MMP-13 (Homo sapiens, UniProt P45452); experiment: MMP-13 inhibition (in vitro Ki)
T4 construct: made in house; host or cells: baculovirus / insect cells

MMP-2 = target: T5, MMP-2 (Homo sapiens, UniProt P08253); experiment: MMP-2 inhibition (in vitro Ki)
T5 construct: made in house; host or cells: MMP-2-transfected p2AHT2 cells
T5 sequence (P08253 110-660): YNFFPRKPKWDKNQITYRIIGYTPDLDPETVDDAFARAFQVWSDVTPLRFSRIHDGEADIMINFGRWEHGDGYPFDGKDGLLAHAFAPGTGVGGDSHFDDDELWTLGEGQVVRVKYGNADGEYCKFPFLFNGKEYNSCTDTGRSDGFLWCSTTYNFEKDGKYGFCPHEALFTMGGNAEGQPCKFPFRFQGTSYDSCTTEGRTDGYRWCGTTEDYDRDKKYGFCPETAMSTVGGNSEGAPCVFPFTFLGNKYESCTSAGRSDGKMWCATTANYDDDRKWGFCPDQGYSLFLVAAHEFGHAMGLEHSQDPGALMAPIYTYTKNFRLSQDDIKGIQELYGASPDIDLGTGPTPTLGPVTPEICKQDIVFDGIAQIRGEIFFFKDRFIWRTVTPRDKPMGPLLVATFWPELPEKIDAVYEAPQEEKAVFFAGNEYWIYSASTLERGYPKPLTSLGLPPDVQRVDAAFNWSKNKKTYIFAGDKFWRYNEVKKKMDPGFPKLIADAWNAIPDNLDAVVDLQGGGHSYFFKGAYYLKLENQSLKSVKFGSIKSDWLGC

[1] = Table 9, read-out: MMP-9 Ki (IC-50)
[2] = Table 9, read-out: MMP-14 Ki (IC-50)
[3] = Table 9, read-out: MMP-1 Ki (IC-50)
[4] = Table 9, read-out: MMP-13 Ki (IC-50)
[5] = Table 9, read-out: MMP-2 Ki (IC-50)

SMILES	Ki (MMP-9; [1]) [nM]	Ki (MMP-14; [2]) [nM]	Ki (MMP-1; [3]) [nM]	Ki (MMP-13; [4]) [nM]	Ki (MMP-2; [5]) [nM]	further results
CC(C)CN(C)C(=O)CCCCC1CCN(S(=O)(=O)C2(C(=O)NO)CCOCC2)CC1 [Example A91]	3800	> 10000	2580	5.08	781	–
COCCC(C(=O)NO)S(=O)(=O)N1CCC(Oc2ccc(SC(F)(F)F)cc2)CC1 (stereo not drawn) [Example B3, N-hydroxy-4-methoxy-2-[(4-{4-[(trifluoromethyl)thio]phenoxy}piperidin-1-yl)sulfonyl]butanamide]	–	–	–	–	–	Ki (MMP-9; Table 10, read-out: MMP-9 Ki): 0.332 nM; Ki (MMP-14; Table 10, read-out: MMP-14 Ki): 1950 nM; Ki (MMP-1; Table 10, read-out: MMP-1 Ki): > 10000 nM; Ki (MMP-13; Table 10, read-out: MMP-13 Ki): 0.985 nM; Ki (MMP-2; Table 10, read-out: MMP-2 Ki): 0.791 nM
O=C(NO)C1(S(=O)(=O)N2CCC(c3ccc(CCC(F)(F)C(F)(F)F)cn3)CC2)CCN(c2ccc(Cl)cc2)CC1 [Example A158]	13.4	> 10000	> 10000	8.98	14.6	–
COCCC(CCOC)(C(=O)NO)S(=O)(=O)N1CCC(c2ccc(CCC(F)(F)C(F)(F)F)cn2)CC1 [Example A107]	0.86	3370	4440	0.85	2.89	–
Cc1ccc(N2CCC(C(=O)NO)(S(=O)(=O)N3CCC(c4ccc(CCC(F)(F)C(F)(F)F)cn4)CC3)CC2)cn1 [Example A131]	0.57	1910	> 10000	0.34	1.2	–
O=C(NO)C1(S(=O)(=O)N2CCC(CCCCCCCC(F)(F)F)CC2)CCOCC1 [Example A52, 4-[4-(8,8,8-trifluoro-octyl)-piperidine-1-sulfonyl]-tetrahydro-pyran-4-carboxylic Acid Hydroxyamide]	–	–	–	–	–	Ki (MMP-9; Table 8, read-out: MMP-9 Ki): 1.03 nM; Ki (MMP-14; Table 8, read-out: MMP-14 Ki): 922 nM; Ki (MMP-1; Table 8, read-out: MMP-1 Ki): 3930 nM; Ki (MMP-13; Table 8, read-out: MMP-13 Ki): 0.23 nM; Ki (MMP-2; Table 8, read-out: MMP-2 Ki): 0.55 nM
O=C(NO)C1(S(=O)(=O)N2CCC(c3ccc(CCC(F)(F)C(F)(F)F)cn3)CC2)CC=CC1 [Example A101]	0.33	2640	721	0.17	0.9	–
O=C(NO)C1(S(=O)(=O)N2CCN(c3nnn(Cc4ccccc4)n3)CC2)CCOCC1 [Example A114]	0.94	1150	5410	0.8	0.38	–
O=C(NO)C1(S(=O)(=O)N2CCC(c3ccc(COCC4CC4)cn3)CC2)CCOCC1 [Example A162]	0.194	2290	4510	0.301	1.15	–
O=C(NO)C1(S(=O)(=O)N2CCC(CCCc3nc(-c4ccc(OC(F)(F)F)cc4)no3)CC2)CCOCC1 [Example A160]	613	> 10000	> 10000	40.9	529	–
O=C(NO)C1(S(=O)(=O)N2CCN(c3ccc(CCC(F)(F)C(F)(F)F)cn3)CC2)CCOCC1 [Example A190]	1.09	3350	> 10000	0.22	0.39	–
CCCCOCCCC1CCN(S(=O)(=O)C2(C(=O)NO)CCOCC2)CC1 [Example A36I]	–	–	–	–	–	Ki (MMP-9; Table 8, read-out: MMP-9 Ki): 2.57 nM; Ki (MMP-14; Table 8, read-out: MMP-14 Ki): 6370 nM; Ki (MMP-1; Table 8, read-out: MMP-1 Ki): > 10000 nM; Ki (MMP-13; Table 8, read-out: MMP-13 Ki): 7.7 nM; Ki (MMP-2; Table 8, read-out: MMP-2 Ki): 9.08 nM
CCCCOCCC1CCN(S(=O)(=O)C2(C(=O)NO)CCOCC2)CC1 [Example A44, 4-[4-(2-butoxy-ethyl)-piperidine-1-sulfonyl]-tetrahydro-pyran-4-carboxylic Acid Hydroxyamide]	–	–	–	–	–	Ki (MMP-9; Table 8, read-out: MMP-9 Ki): 12.5 nM; Ki (MMP-14; Table 8, read-out: MMP-14 Ki): > 10000 nM; Ki (MMP-1; Table 8, read-out: MMP-1 Ki): > 10000 nM; Ki (MMP-13; Table 8, read-out: MMP-13 Ki): 38.2 nM; Ki (MMP-2; Table 8, read-out: MMP-2 Ki): 27.3 nM
COCC#Cc1ccc(C2CCN(S(=O)(=O)C3(C(=O)NO)CCOCC3)CC2)nc1 [Example A171]	0.54	604	4180	0.31	0.42	–
O=C(NO)C1(S(=O)(=O)N2CCN(c3ccc(-c4nnn(CC(F)(F)F)n4)cc3)CC2)CCOCC1 [Example A199]	0.84	287	287	0.04	0.06	–
O=C(NO)C1(S(=O)(=O)N2CCC(c3ccc(CCc4cccs4)cn3)CC2)CCOCC1 [Example A102]	3.84	2160	6280	0.215	1.3	–
O=C(CCCCN1CCN(S(=O)(=O)C2(C(=O)NO)CCOCC2)CC1)c1cccc(OC(F)(F)F)c1 [Example A140]	814	> 10000	> 10000	12.5	390	–
O=C(NO)C1(S(=O)(=O)N2CCN(c3ccc(CCC(F)(F)F)cn3)CC2)CCOCC1 [Example A184]	0.52	985	7050	0.41	0.38	–
O=C(NO)C1(S(=O)(=O)N2CCN(c3ccc(-c4ccsc4)c(F)c3)CC2)CCOCC1 [Example A205]	1.16	297	3590	0.93	0.33	–
O=C(NO)C1(S(=O)(=O)N2CCC(OCCCCCC(F)(F)C(F)(F)F)CC2)CCOCC1 [Example A50, 4-[4-(6,6,7,7,7-pentafluoro-heptyloxy)-piperidine-1-sulfonyl]-tetrahydro-pyran-4-carboxylic Acid Hydroxyamide]	–	–	–	–	–	Ki (MMP-9; Table 8, read-out: MMP-9 Ki): 7.1 nM; Ki (MMP-14; Table 8, read-out: MMP-14 Ki): 4560 nM; Ki (MMP-1; Table 8, read-out: MMP-1 Ki): > 10000 nM; Ki (MMP-13; Table 8, read-out: MMP-13 Ki): 0.6 nM; Ki (MMP-2; Table 8, read-out: MMP-2 Ki): 1.57 nM
O=C(NO)C1(S(=O)(=O)N2CCC(CCCCCOCCC(F)(F)F)CC2)CCOCC1 [Example A37, 4-{4-[5-(3,3,3-Trifluoro-propoxy)-pentyl]-piperidine-1-sulfonyl}-tetrahydro-pyran-4-carboxylic Acid Hydroxyamide]	–	–	–	–	–	Ki (MMP-9; Table 8, read-out: MMP-9 Ki): 0.3 nM; Ki (MMP-14; Table 8, read-out: MMP-14 Ki): 690 nM; Ki (MMP-1; Table 8, read-out: MMP-1 Ki): 6710 nM; Ki (MMP-13; Table 8, read-out: MMP-13 Ki): 0.3 nM; Ki (MMP-2; Table 8, read-out: MMP-2 Ki): 0.97 nM
CCCCC=CCCOC1CCN(S(=O)(=O)C2(C(=O)NO)CCOCC2)CC1 [Example A36C]	–	–	–	–	–	Ki (MMP-9; Table 8, read-out: MMP-9 Ki): 3.41 nM; Ki (MMP-14; Table 8, read-out: MMP-14 Ki): 1900 nM; Ki (MMP-1; Table 8, read-out: MMP-1 Ki): > 10000 nM; Ki (MMP-13; Table 8, read-out: MMP-13 Ki): 1.22 nM; Ki (MMP-2; Table 8, read-out: MMP-2 Ki): 3.93 nM
O=C(NO)C1(S(=O)(=O)N2CCC(c3ccc(CCC(F)F)cn3)CC2)CCOCC1 [Example A161]	0.223	1670	2970	0.474	0.513	–
CN(CC1CCCCC1)C(=O)CCCCC1CCN(S(=O)(=O)C2(C(=O)NO)CCOCC2)CC1 [Example A112]	1820	> 10000	708	0.92	190	–
O=C(/C=C/C=C/C1CCN(S(=O)(=O)C2(C(=O)NO)CCOCC2)CC1)N1CCc2ccccc21 [Example A80]	1890	> 10000	5450	0.389	239	–
O=C(NCCCCC1CCN(S(=O)(=O)C2(C(=O)NO)CCOCC2)CC1)C(=O)c1cccs1 [Example A108]	55.5	4520	630	0.16	3.25	–
Cc1cnn(-c2ccc(C3CCN(S(=O)(=O)C4(C(=O)NO)CCOCC4)CC3)nc2)c1 [Example A193]	8.24	2820	4710	2.09	4.7	–
CN(CC1CCCCC1)C(=O)CCCC1CCN(S(=O)(=O)C2(C(=O)NO)CCOCC2)CC1 [Example A111]	1710	> 10000	> 10000	9.09	364	–
CCCCCCOCC1CCN(S(=O)(=O)C2(C(=O)NO)CCOCC2)CC1 [Example A41, 4-(4-hexyloxymethyl-piperidine-1-sulfonyl)-tetrahydro-pyran-4-carboxylic Acid Hydroxyamide]	–	–	–	–	–	Ki (MMP-9; Table 8, read-out: MMP-9 Ki): 1.79 nM; Ki (MMP-14; Table 8, read-out: MMP-14 Ki): 7210 nM; Ki (MMP-1; Table 8, read-out: MMP-1 Ki): > 10000 nM; Ki (MMP-13; Table 8, read-out: MMP-13 Ki): 7.95 nM; Ki (MMP-2; Table 8, read-out: MMP-2 Ki): 8.38 nM
O=C(NO)C1(S(=O)(=O)N2CCN(c3ccc(CCCC(F)(F)F)cc3)CC2)CCN(CC(F)(F)F)CC1 [Example A183]	307	> 10000	> 10000	1.07	2.06	–
